Experimental data from PMC11731290, “Highly Active Oligoethylene Glycol Pleuromutilins via Systematic Linker Synthesis/One-Pot Attachment and a Microscale Solubility Method” (The Journal of Organic Chemistry, 2024).
Values after ≈ are worked out from the molar mass of the structure shown. Where two headings read alike, the source gives them in different places.

Experiments:
[1] = tested on: methicillin-resistant S. aureus (MRSA) ATCC 43300; assay: Broth microdilution MIC, MRSA 43300; assay type: cell-based, Staphylococcus aureus; settings: for MIC: Staphylococcus aureus, read-out: Minimum inhibitory concentration, MRSA 43300; for improvement in activity relative to pleuromutilin (1): Gram-positive bacteria (S. aureus strains), MIC ratio to 1
S. aureus 6538P = assay: Broth microdilution MIC, S. aureus 6538P; assay type: cell-based; settings: Staphylococcus aureus, read-out: Minimum inhibitory concentration, S. aureus 6538P
[2] = tested on: vancomycin-resistant Enterococcus (VRE); assay: Broth microdilution MIC, VRE; assay type: cell-based; settings: for MIC: Enterococcus, VRE, 24 h, read-out: Minimum inhibitory concentration, VRE
E. coli MC1061 = assay: Broth microdilution MIC, E. coli MC1061; assay type: cell-based; settings: Escherichia coli
E. coli ΔTolC = assay: Broth microdilution MIC, E. coli ΔTolC; assay type: cell-based; settings: Escherichia coli, read-out: Minimum inhibitory concentration, E. coli ΔTolC
[3] = set-up: method as in earlier work; settings: cited from earlier work
[4] = Microscale solubility by optical density (plate reader); settings: 37 °C, aqueous buffer, kinetic from dmso stock
[5] = broth microdilution, 37 °C, 16–18 h, MIC = lowest concentration inhibiting >90% of growth
[6] = broth microdilution, 37 °C, MIC = lowest concentration inhibiting >90% of growth
[7] = MC1061, broth microdilution, 37 °C, 16–18 h, MIC = lowest concentration inhibiting >90% of growth, read-out: Minimum inhibitory concentration, E. coli MC1061

Structure (SMILES) | MIC [1] | MIC (S. aureus 6538P) | MIC [2] | MIC (E. coli MC1061; MC1061, read-out: Minimum inhibitory concentration, E. coli MC1061) | MIC (E. coli ΔTolC) | water solubility [3] | solubility at 1 day [4] | MIC [1, 5] | MIC (S. aureus 6538P; [5]) | MIC [2, 6] | MIC (E. coli MC1061; [7]) | improvement in activity relative to pleuromutilin (1) [1] | potency compared to 1, VRE ([2]; MIC ratio to 1)
C=C[C@]1(C)C[C@@H](OC(=O)CO)[C@]2(C)[C@H](C)CC[C@]3(CCC(=O)[C@H]32)[C@@H](C)[C@@H]1O [compound 1, Pleuromutilin] | 3.12 µM (≈ 1.18 µg/mL) | 3.12 µM (≈ 1.18 µg/mL) | 12.5 µM (≈ 4.73 µg/mL) | 3.12 µM (≈ 1.18 µg/mL) | 3.12 µM (≈ 1.18 µg/mL) | 20 µg/mL (≈ 52.8 µM) | 50 to 100 µM (≈ 18.9 to 37.9 µg/mL) |  |  |  |  |  | 
C=C[C@]1(C)C[C@@H](OC(=O)CSCCO)[C@]2(C)[C@H](C)CC[C@]3(CCC(=O)[C@H]32)[C@@H](C)[C@@H]1O [compound 25] |  |  |  |  | 0.391 µM (≈ 0.172 µg/mL) |  | > 200 µM | 0.781 µM (≈ 0.343 µg/mL) | 0.781 µM (≈ 0.343 µg/mL) | 3.12 µM (≈ 1.37 µg/mL) | 3.12 µM (≈ 1.37 µg/mL) |  | 
C=C[C@]1(C)C[C@@H](OC(=O)CSCCN=[N+]=[N-])[C@]2(C)[C@H](C)CC[C@]3(CCC(=O)[C@H]32)[C@@H](C)[C@@H]1O [compound 28] |  |  |  |  | 0.195 µM (≈ 0.0904 µg/mL) |  | 25 to 50 µM (≈ 11.6 to 23.2 µg/mL) | 0.391 µM (≈ 0.181 µg/mL) | 0.391 µM (≈ 0.181 µg/mL) | 1.56 µM (≈ 0.723 µg/mL) | 12.5 µM (≈ 5.8 µg/mL) | 8 fold | 8 fold
C=C[C@]1(C)C[C@@H](OC(=O)CSCCOCCN=[N+]=[N-])[C@]2(C)[C@H](C)CC[C@]3(CCC(=O)[C@H]32)[C@@H](C)[C@@H]1O [compound 29] | 0.391 µM (≈ 0.199 µg/mL) |  |  |  | 0.391 µM (≈ 0.199 µg/mL) |  | 25 to 50 µM (≈ 12.7 to 25.4 µg/mL) |  | 0.781 µM (≈ 0.397 µg/mL) | 3.12 µM (≈ 1.58 µg/mL) | 25 µM (≈ 12.7 µg/mL) | 8 fold | 
C=C[C@]1(C)C[C@@H](OC(=O)CSCCOCCOCCN=[N+]=[N-])[C@]2(C)[C@H](C)CC[C@]3(CCC(=O)[C@H]32)[C@@H](C)[C@@H]1O [compound 30] |  |  |  |  | 0.391 µM (≈ 0.216 µg/mL) |  | 50 to 100 µM (≈ 27.6 to 55.2 µg/mL) | 0.781 µM (≈ 0.431 µg/mL) | 0.781 µM (≈ 0.431 µg/mL) | 3.12 µM (≈ 1.72 µg/mL) | 25 µM (≈ 13.8 µg/mL) |  | 
C=C[C@]1(C)C[C@@H](OC(=O)CSCCOCCOCCOCCN=[N+]=[N-])[C@]2(C)[C@H](C)CC[C@]3(CCC(=O)[C@H]32)[C@@H](C)[C@@H]1O [compound 31] |  |  |  |  | 0.391 µM (≈ 0.233 µg/mL) |  | 100 to 200 µM (≈ 59.6 to 119 µg/mL) | 0.781 µM (≈ 0.465 µg/mL) | 0.781 µM (≈ 0.465 µg/mL) | 3.12 µM (≈ 1.86 µg/mL) | 50 µM (≈ 29.8 µg/mL) |  | 
C=C[C@]1(C)C[C@@H](OC(=O)CSCCOCCOCCOCCOCCN=[N+]=[N-])[C@]2(C)[C@H](C)CC[C@]3(CCC(=O)[C@H]32)[C@@H](C)[C@@H]1O [compound 32] |  |  |  |  | 0.391 µM (≈ 0.25 µg/mL) |  | 100 to 200 µM (≈ 64 to 128 µg/mL) | 0.781 µM (≈ 0.5 µg/mL) | 0.781 µM (≈ 0.5 µg/mL) | 3.12 µM (≈ 2 µg/mL) | 25 µM (≈ 16 µg/mL) |  | 
C=C[C@]1(C)C[C@@H](OC(=O)CSCCOCCO)[C@]2(C)[C@H](C)CC[C@]3(CCC(=O)[C@H]32)[C@@H](C)[C@@H]1O [compound 43] |  |  |  |  | 0.391 µM (≈ 0.189 µg/mL) |  | > 200 µM | 0.781 µM (≈ 0.377 µg/mL) | 0.781 µM (≈ 0.377 µg/mL) | 3.12 µM (≈ 1.51 µg/mL) | 6.25 µM (≈ 3.02 µg/mL) |  | 
C=C[C@]1(C)C[C@@H](OC(=O)CSCCOCCOCCO)[C@]2(C)[C@H](C)CC[C@]3(CCC(=O)[C@H]32)[C@@H](C)[C@@H]1O [compound 44] |  |  |  |  | 0.391 µM (≈ 0.206 µg/mL) |  | > 200 µM | 1.56 µM (≈ 0.822 µg/mL) | 0.781 µM (≈ 0.411 µg/mL) | 3.12 µM (≈ 1.64 µg/mL) | 12.5 µM (≈ 6.58 µg/mL) |  | 
C=C[C@]1(C)C[C@@H](OC(=O)CSCCOCCOCCOCCO)[C@]2(C)[C@H](C)CC[C@]3(CCC(=O)[C@H]32)[C@@H](C)[C@@H]1O [compound 45] |  | 0.781 µM (≈ 0.446 µg/mL) |  |  | 0.781 µM (≈ 0.446 µg/mL) |  | > 200 µM | 1.56 µM (≈ 0.89 µg/mL) |  | 3.12 µM (≈ 1.78 µg/mL) | 12.5 µM (≈ 7.13 µg/mL) |  | 
C=C[C@]1(C)C[C@@H](OC(=O)CSCCOCCOCCOCCOCCO)[C@]2(C)[C@H](C)CC[C@]3(CCC(=O)[C@H]32)[C@@H](C)[C@@H]1O [compound 46] |  | 0.781 µM (≈ 0.48 µg/mL) |  |  | 0.781 µM (≈ 0.48 µg/mL) |  | > 200 µM | 1.56 µM (≈ 0.959 µg/mL) |  | 3.12 µM (≈ 1.92 µg/mL) | 12.5 µM (≈ 7.69 µg/mL) |  | 
C=C[C@]1(C)C[C@@H](OC(=O)CSCCOCCOCCOCCOCCOCCO)[C@]2(C)[C@H](C)CC[C@]3(CCC(=O)[C@H]32)[C@@H](C)[C@@H]1O [compound 47] |  | 0.781 µM (≈ 0.515 µg/mL) |  |  | 0.781 µM (≈ 0.515 µg/mL) |  | > 200 µM | 1.56 µM (≈ 1.03 µg/mL) |  | 3.12 µM (≈ 2.06 µg/mL) | 25 µM (≈ 16.5 µg/mL) |  | 
C=C[C@]1(C)C[C@@H](OC(=O)CSCCOCCOCCOCCOCCOCCOCCOCCO)[C@]2(C)[C@H](C)CC[C@]3(CCC(=O)[C@H]32)[C@@H](C)[C@@H]1O [compound 48] |  | 1.56 µM (≈ 1.17 µg/mL) |  |  | 1.56 µM (≈ 1.17 µg/mL) |  | > 200 µM | 3.12 µM (≈ 2.33 µg/mL) |  | 3.12 µM (≈ 2.33 µg/mL) | 25 µM (≈ 18.7 µg/mL) |  | 
